Data as given in patent US11535643B2, “Macrolides with modified desosamine sugars and uses thereof” (President and Fellows of Harvard College, priority 2015, dated 2022).
Values after ≈ are worked out from the molar mass of the structure shown. Read-outs that look alike come from different tables or passages of the source.

Tests used:
Format in all cases: cell-based
[1] = test system: A. baumannii; assay: Broth dilution MIC determination (CLSI) against A. baumannii strains; conditions: for MIC: Acinetobacter baumannii
Text: (§1) Minimum inhibitory concentrations (MICs) for macrolides described herein have been determined for unique strains of S. aureus, S. pneumoniae, S. pyogenes, E. faecalis, E. coli, A. baumannii, K. pneumoniae, P. aeruginosa, and H. influenzae, including several multidrug-resistant strains, with a special focus on macrolide resistant mechanisms. Azithromycin and solithromycin were included as control compounds. CLSI standard procedures for broth dilution MIC determination were used. Data for exemplary compounds described herein is shown in Tables M1-M7 and in Tables N1-N4.

[2] = test system: S. pneumoniae; assay: Broth dilution MIC determination (CLSI) against S. pneumoniae strains; conditions: for MIC: Streptococcus pneumoniae
Text: as §1

[3] = test system: S. pyogenes; assay: Broth dilution MIC determination (CLSI) against S. pyogenes strains; conditions: for MIC: Streptococcus pyogenes
Text: as §1

[4] = test system: P. aeruginosa; assay: Broth dilution MIC determination (CLSI) against P. aeruginosa strains; conditions: for MIC: Pseudomonas aeruginosa
Text: as §1

[5] = test system: S. aureus; assay: Broth dilution MIC determination (CLSI) against S. aureus strains; conditions: for MIC: Staphylococcus aureus
Text: as §1

[6] = test system: E. faecalis; assay: Broth dilution MIC determination (CLSI) against E. faecalis strains; conditions: for MIC: Enterococcus faecalis
Text: as §1

[7] = test system: E. coli; assay: Broth dilution MIC determination (CLSI) against E. coli strains; conditions: for MIC: Escherichia coli
Text: as §1

[8] = test system: K. pneumoniae; assay: Broth dilution MIC determination (CLSI) against K. pneumoniae strains; conditions: for MIC: Klebsiella pneumoniae
Text: as §1, with “used.” for “used. Data for exemplary compounds described herein is shown in Tables M1-M7 and in Tables N1-N4.”

CC[C@H]1OC(=O)[C@H](C)C(=O)[C@H](C)[C@@H](O[C@@H]2O[C@H](C)CC(N3CCCC3)C2O)[C@](C)(OC)C[C@@H](C)CN[C@H](C)[C@H]2N(CCCCn3cc(-c4cccc(N)c4)nn3)C(=O)O[C@]12C (some centres unmarked) [FSM-120361]
MIC ([1]; ATCC19606, ATCC19606, Strain No. MP-15, read-out: MIC A. baumannii ATCC19606): 32 µg/mL (≈ 37.5 µM) | MIC ([1]; clinical, Strain No. MP576, read-out: MIC A. baumannii clinical): > 64 µg/mL | MIC ([1]; clinical, Strain No. MP577, read-out: MIC A. baumannii clinical): 64 µg/mL (≈ 74.9 µM) | MIC ([2]; ATCC49619, ATCC49619, Strain No. MP-21, read-out: MIC S. pneumoniae ATCC49619): 0.25 µg/mL (≈ 0.293 µM) | MIC ([2]; read-out: MIC S. pneumoniae mefA, mefA, Strain No. MP-626 UNT-038): 0.125 µg/mL (≈ 0.146 µM) | MIC ([2]; read-out: MIC S. pneumoniae mefA, mefA, Strain No. MP-627 UNT-039): 0.125 µg/mL (≈ 0.146 µM) | MIC ([3]; ATCC19615, ATCC19615, Strain No. MP-19, read-out: MIC S. pyogenes ATCC19615): 0.06 µg/mL (≈ 0.0702 µM) | MIC ([3]; mac resistant, Strain No. MP-625 UNT-014, read-out: MIC S. pyogenes mac resistant): 0.5 µg/mL (≈ 0.585 µM) | MIC ([4]; PAO1, read-out: MIC P. aeruginosa PAO1): > 64 µg/mL | MIC ([4]; PAO1, read-out: MIC P. aeruginosa PAO1:mex): 16 µg/mL (≈ 18.7 µM) | MIC ([4]; ATCC27853, Strain No. MP-3, read-out: MIC P. aeruginosa ATCC27853): > 64 µg/mL | MIC ([5]; ATCC29213, ATCC29213, Strain No. MP-12, read-out: MIC S. aureus ATCC29213): 32 µg/mL (≈ 37.5 µM) | MIC ([5]; ATCCBAA977, ATCCBAA-977, Strain No. MP-17, read-out: MIC S. aureus ATCCBAA-977): 32 µg/mL (≈ 37.5 µM) | MIC ([5]; MRSA / USA100, USA100, Strain No. MP-618 UNT-096, read-out: MIC S. aureus (MRSA) USA100): > 64 µg/mL | MIC ([5]; MRSA / USA300, USA300, Strain No. MP-549, read-out: MIC S. aureus (MRSA) USA300): 32 µg/mL (≈ 37.5 µM) | MIC ([5]; MRSA / USA600, GISA USA600, Strain No. MP-619 UNT-120, read-out: MIC S. aureus (MRSA) GISA USA600): > 64 µg/mL | MIC ([5]; MRSA, ST-228 cErm, Strain No. MP-513, read-out: MIC S. aureus (MRSA) ST-228 cErm): > 64 µg/mL | MIC ([6]; ATCC29212, ATCC29212, Strain No. MP-24, read-out: MIC E. faecalis ATCC29212): 4 µg/mL (≈ 4.68 µM) | MIC ([6]; van resistant, Strain No. UNT-039, read-out: MIC E. faecalis van resistant): > 64 µg/mL | MIC ([7]; ATCC25922, ATCC25922, Strain No. MP-4, read-out: MIC E. coli ATCC25922): 32 µg/mL (≈ 37.5 µM) | MIC ([7]; ATCC25922, ATCC25922:tolC, Strain No. MP-9, read-out: MIC E. coli ATCC25922:tolC): 4 µg/mL (≈ 4.68 µM) | MIC ([7]; clinical, Strain No. MP541, read-out: MIC E. coli clinical): 32 µg/mL (≈ 37.5 µM) | MIC ([7]; clinical-cErm, Strain No. MP532, read-out: MIC E. coli clinical-cErm): > 64 µg/mL | MIC ([8]; ATCC10031, ATCC10031, Strain No. MP-14, read-out: MIC K. pneumoniae ATCC10031): 4 µg/mL (≈ 4.68 µM) | MIC ([8]; clinical, Strain No. MP546, read-out: MIC K. pneumoniae clinical): > 64 µg/mL | MIC ([8]; clinical, Strain No. MP548, read-out: MIC K. pneumoniae clinical): 64 µg/mL (≈ 74.9 µM)

CCC1OC(=O)C(C)C(=O)C(C)C(OC2OC(C)CC(N3CCOCC3)C2O)C(C)(OC)CC(C)CNC(C)C2N(CCCCn3cc(-c4cccc(N)c4)nn3)C(=O)OC12C (centres unmarked) [FSM-120367]
MIC A. baumannii ATCC19606 ([1]; ATCC19606, Strain No. MP-15): >64 µg/mL | MIC A. baumannii clinical ([1]; clinical, Strain No. MP576): >64 µg/mL | MIC A. baumannii clinical ([1]; clinical, Strain No. MP577): >64 µg/mL | MIC S. pneumoniae ATCC49619 ([2]; ATCC49619, Strain No. MP-21): 32 µg/mL (≈ 36.8 µM) | MIC S. pneumoniae mefA ([2]; Strain No. MP-626 UNT-038): 16 µg/mL (≈ 18.4 µM) | MIC S. pneumoniae mefA ([2]; Strain No. MP-627 UNT-039): 16 µg/mL (≈ 18.4 µM) | MIC S. pyogenes ATCC19615 ([3]; ATCC19615, Strain No. MP-19): 8 µg/mL (≈ 9.19 µM) | MIC S. pyogenes mac resistant ([3]; mac resistant, Strain No. MP-625 UNT-014): 64 µg/mL (≈ 73.6 µM) | MIC P. aeruginosa ATCC27853 ([4]; ATCC27853, Strain No. MP-3): >64 µg/mL | MIC P. aeruginosa PAO1 ([4]; PAO1, Strain No. MP-7): >64 µg/mL | MIC P. aeruginosa PAO1:mex ([4]; PAO1:mex, Strain No. MP-8): >64 µg/mL | MIC S. aureus ATCC29213 ([5]; ATCC29213, Strain No. MP-12): >64 µg/mL | MIC S. aureus ATCCBAA-977 ([5]; ATCCBAA-977, Strain No. MP-17): >64 µg/mL | MIC S. aureus (MRSA) GISA USA600 ([5]; GISA USA600, Strain No. MP-619 UNT-120): >64 µg/mL | MIC S. aureus (MRSA) ST-228 cErm ([5]; ST-228 cErm, Strain No. MP-513): >64 µg/mL | MIC S. aureus (MRSA) USA100 ([5]; USA100, Strain No. MP-618 UNT-096): >64 µg/mL | MIC S. aureus (MRSA) USA300 ([5]; USA300, Strain No. MP-549): >64 µg/mL | MIC S. aureus (MRSA) ermA phenotype ([5]; ermA phenotype, Strain No. MP-620 UNT-146): >64 µg/mL | MIC E. faecalis ATCC29212 ([6]; ATCC29212, Strain No. MP-24): 64 µg/mL (≈ 73.6 µM) | MIC E. faecalis van resistant ([6]; van resistant, Strain No. UNT-039): >64 µg/mL | MIC E. coli ATCC25922 ([7]; ATCC25922, Strain No. MP-4): >64 µg/mL | MIC E. coli ATCC25922:tolC ([7]; ATCC25922:tolC, Strain No. MP-9): >64 µg/mL | MIC E. coli clinical ([7]; clinical, Strain No. MP541): >64 µg/mL | MIC E. coli clinical-cErm ([7]; clinical-cErm, Strain No. MP532): >64 µg/mL | MIC K. pneumoniae ATCC10031 ([8]; ATCC10031, Strain No. MP-14): >64 µg/mL | MIC K. pneumoniae clinical ([8]; clinical, Strain No. MP546): >64 µg/mL | MIC K. pneumoniae clinical ([8]; clinical, Strain No. MP548): >64 µg/mL
